# Laboratory results taken from US20160206633A1, “dhS1P AND USE OF SAME AS AN ANTICANCER THERAPEUTIC AND IMMUNOMODULATOR” (Penn State Research Foundation, Inc., priority 2013, published 2016).
# Key:
# [1] = system: splenic hematopoietic progenitors (Lineage-Sca-1+CD117+); assay: Isolated splenic hematopoietic progenitors exposed to dhS1P, multicolor flow cytometry; assay type: cell-based, athymic nude mice; conditions: 5 μM, 24-hour culture
# Procedure: (A) Splenic IMCs (Gr-1+CD11b+, also defined as MDSCs: myeloid-derived suppressor cells) were isolated from MDA-MB-231 tumor-bearing athymic nude mice and exposed to BSA, S1P (5 μM), or dhS1P (5 μM). Following 24-hour culture incubation, cells were labeled with specific antibodies and analyzed by multicolor flow cytometry (red: IMCs; blue: possible B-cells). (B) Splenic IMCs were isolated from MDA-MB-231 tumor-bearing athymic nude mice and cultured (5×10^4 cells/mL) in GEMM-supportive semi-solid media with BSA, S1P (5 μM), or dhS1P (5 μM). GEMM colonies (multipotent myeloid progenitor cells) were visualized and counted after 3 weeks of culture. ANOVA, *p<0.01 compared to no treatment or BSA-treatment, ***p<0.001 compared to S1P-treatment, n≧3. (C) Splenic hematopoietic progenitors (Lineage-Sca-1+CD117+) were isolated from MDA-MB-231 tumor-bearing athymic nude mice and exposed to BSA, S1P (5 μM), or dhS1P (5 μM). Following 24-hour culture incubation, cells were labeled with specific antibodies and analyzed by multicolor flow cytometry.
# Splenocytes were harvested from tumor-bearing mice by mechanical disruption in red blood cell lysis buffer. Splenocytes were washed, and resuspended in PBS with Mouse BD Fc Block (1 μg per 1×10^6 splenocytes), and incubated for 15 minutes at 4° C. For IMC isolation, antibodies targeting Gr-1 (FITC) and CD11b (PE-Cy7) were added. […]
# isolated MDSC-like cells = assay: Whole-genome RNA microarray of isolated MDSC-like cells after dhS1P; assay type: cell-based, athymic nude mice; conditions: 24 hours dhS1P vs vehicle (BSA); fold-change cut-off 1.2, p-value cut-off 0.05
# Procedure: To more closely evaluate the genetic consequences of the dhS1P-induced decrease in isolated MDSC-like cells and the increase in cells bearing the surface markers of B-cells, a RNA microarray analysis was conducted. MDSC-like cells were isolated from MDA-MB-231 tumor-bearing athymic nude mice, exposed for 24 hours to dhS1P or vehicle (BSA), followed by RNA extraction, and a whole-genome microarray was performed. As compared to vehicle-treated MDSC-like cells, dhS1P treatment of isolated MDSC-like cells altered the expression of a variety of genes.
# Isolated MDSC-like cells were cultured for 24 hours in media containing BSA, or dhS1P ([…]), before collection and washing via centrifugation. […]
# cDNA was purified according to standard procedures. cDNA was in vitro transcribed to synthesize cRNA using a MEGAscript kit (Ambion, Austin, Tex.). Samples were incubated with T7 10× reaction buffer, T7 Enzyme mix and Biotin-NTP mix at 37° C. for 14 hours. cRNA was purified according to instructions, and the yield was measured using a NanoDrop ND-1000 (NanoDrop Products, Wilmington, Del.). […] BeadChips were dried by centrifugation at 275×g for 4 minutes and subsequently scanned using a BeadArray Reader. […]
structure (smiles),measurement,setting,value
"CCCCCCCCCCCCCCC[C@@H](O)[C@@H](N)COP(=O)(O)O [dhS1P, dihydrosphingosine-1-phosphate]",CD19+CD45R B220+ cellular population from isolated hematopoietic progenitors,[1],mediated the expansion
same,Number of significantly regulated genes,isolated MDSC-like cells,319
